Results published in patent US10918654B1, “Rutin compositions” (Alps Pharmaceutical Ind. Co., Ltd., priority 2019, dated 2021).

Test: Stability of the flavonoid in aqueous L-arginine/sodium ascorbate solution at 50° C., intact amount by HPLC
Assay type: physicochemical
Settings: for amount of intact flavonoid remaining, of the initial amount in the solution: dissolved in water with L-arginine and sodium ascorbate, HPLC
Procedure: A composition containing rutin, L-arginine, and ascorbate was prepared in water by mixing 0.0071 mol rutin with an aqueous solution containing 0.020 mol L-arginine, heating the mixture to 80° C. until the rutin dissolved completely, and adding 0.0010 mol sodium ascorbate.
After cooling the above solution, the stability of rutin was tested by heating the mixture to 50° C. and quantifying the amount of intact rutin remaining by HPLC after 0 h, 5 h, and 24 h.

C[C@@H]1O[C@@H](OC[C@H]2O[C@@H](Oc3c(-c4ccc(O)c(O)c4)oc4cc(O)cc(O)c4c3=O)[C@H](O)[C@@H](O)[C@@H]2O)[C@H](O)[C@H](O)[C@H]1O [rutin]
amount of intact flavonoid remaining, of the initial amount in the solution (5 h at 50° C.): 100% | amount of intact flavonoid remaining, of the initial amount in the solution (24 h at 50° C.): 97.2% | flavonoid degraded (after 24 h at 50° C., with L-arginine and sodium ascorbate): 2.8%
